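Briefly, cells in 96-well plates were exposed to five compound concentrations for 48 h, and endpoints were estimated by linear interpolation. TGI is the concentration that stops growth completely.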
Columns and labels:
Assay in all cases: growth of human tumour cells (NCI), 48 h
NCI-H460 lung = tested on: NCI-H460 lung
MDA-N = tested on: MDA-N
K-562 leukemia = tested on: K-562 leukemia
SK-OV-3 ovarian = tested on: SK-OV-3 ovarian
MCF7 breast = tested on: MCF7 breast
UACC-62 melanoma = tested on: UACC-62 melanoma
ACHN renal = tested on: ACHN renal
NCI-H226 lung = tested on: NCI-H226 lung
HCT-15 colon = tested on: HCT-15 colon
OVCAR-3 ovarian = tested on: OVCAR-3 ovarian
COLO 205 colon = tested on: COLO 205 colon
A549 NSCLC = tested on: A549 NSCLC
786-0 renal = tested on: 786-0 renal
HS 578T breast = tested on: HS 578T breast
HCT-116 colon = tested on: HCT-116 colon
SNB-19 CNS = tested on: SNB-19 CNS
MDA-MB-231 breast = tested on: MDA-MB-231 breast
A498 renal = tested on: A498 renal
M14 melanoma = tested on: M14 melanoma
SK-MEL-2 melanoma = tested on: SK-MEL-2 melanoma
CCRF-CEM leukemia = tested on: CCRF-CEM leukemia
KM12 colon = tested on: KM12 colon
T-47D breast = tested on: T-47D breast
SK-MEL-28 melanoma = tested on: SK-MEL-28 melanoma
EKVX NSCLC = tested on: EKVX NSCLC
IGROV1 ovarian = tested on: IGROV1 ovarian
CAKI-1 renal = tested on: CAKI-1 renal
BT-549 breast = tested on: BT-549 breast
HCC-2998 colon = tested on: HCC-2998 colon
OVCAR-5 ovarian = tested on: OVCAR-5 ovarian
HOP-92 NSCLC = tested on: HOP-92 NSCLC
TK-10 renal = tested on: TK-10 renal
SF-539 CNS = tested on: SF-539 CNS
UACC-257 melanoma = tested on: UACC-257 melanoma
NCI-H23 lung = tested on: NCI-H23 lung
NCI/ADR-RES ovarian = tested on: NCI/ADR-RES ovarian
HT29 colon = tested on: HT29 colon
MALME-3M melanoma = tested on: MALME-3M melanoma
SW-620 colon = tested on: SW-620 colon
OVCAR-8 ovarian = tested on: OVCAR-8 ovarian
RPMI-8226 leukemia = tested on: RPMI-8226 leukemia
SR leukemia = tested on: SR leukemia
U251 CNS = tested on: U251 CNS
RXF 393 renal = tested on: RXF 393 renal
LOX IMVI melanoma = tested on: LOX IMVI melanoma
DU-145 prostate = tested on: DU-145 prostate
MDA-MB-435 = tested on: MDA-MB-435
SN12C renal = tested on: SN12C renal
SF-295 CNS = tested on: SF-295 CNS
PC-3 prostate = tested on: PC-3 prostate
SF-268 CNS = tested on: SF-268 CNS
HL-60(TB) leukemia = tested on: HL-60(TB) leukemia
OVCAR-4 ovarian = tested on: OVCAR-4 ovarian
SK-MEL-5 melanoma = tested on: SK-MEL-5 melanoma
MOLT-4 leukemia = tested on: MOLT-4 leukemia
HOP-62 NSCLC = tested on: HOP-62 NSCLC
NCI-H522 lung = tested on: NCI-H522 lung
UO-31 renal = tested on: UO-31 renal

## O=C(NNc1cn[nH]c(=O)n1)c1cccc2nc3ccccc3nc12
NCI-H460 lung
  TGI: > 100 µM
MDA-N
  TGI: > 100 µM
K-562 leukemia
  TGI: > 100 µM
SK-OV-3 ovarian
  TGI: > 100 µM
MCF7 breast
  TGI: > 100 µM
UACC-62 melanoma
  TGI: > 100 µM
ACHN renal
  TGI: 60.1 µM
NCI-H226 lung
  TGI: > 100 µM
HCT-15 colon
  TGI: > 100 µM
OVCAR-3 ovarian
  TGI: > 100 µM
COLO 205 colon
  TGI: > 100 µM
A549 NSCLC
  TGI: > 100 µM
786-0 renal
  TGI: > 100 µM
HS 578T breast
  TGI: > 100 µM
HCT-116 colon
  TGI: > 100 µM
SNB-19 CNS
  TGI: > 100 µM
MDA-MB-231 breast
  TGI: 84.3 µM
A498 renal
  TGI: > 100 µM
M14 melanoma
  TGI: > 100 µM
SK-MEL-2 melanoma
  TGI: > 100 µM
CCRF-CEM leukemia
  TGI: > 100 µM
KM12 colon
  TGI: > 100 µM
T-47D breast
  TGI: > 100 µM
SK-MEL-28 melanoma
  TGI: > 100 µM
EKVX NSCLC
  TGI: > 100 µM
IGROV1 ovarian
  TGI: > 100 µM
CAKI-1 renal
  TGI: > 100 µM
BT-549 breast
  TGI: > 100 µM
HCC-2998 colon
  TGI: > 100 µM
OVCAR-5 ovarian
  TGI: > 100 µM
HOP-92 NSCLC
  TGI: > 100 µM
TK-10 renal
  TGI: 67 µM
SF-539 CNS
  TGI: > 100 µM
UACC-257 melanoma
  TGI: > 100 µM
NCI-H23 lung
  TGI: > 100 µM
NCI/ADR-RES ovarian
  TGI: > 100 µM
HT29 colon
  TGI: > 100 µM
MALME-3M melanoma
  TGI: > 100 µM
SW-620 colon
  TGI: > 100 µM
OVCAR-8 ovarian
  TGI: > 100 µM
RPMI-8226 leukemia
  TGI: > 100 µM
SR leukemia
  TGI: 26.5 µM
U251 CNS
  TGI: > 100 µM
RXF 393 renal
  TGI: 56.8 µM
LOX IMVI melanoma
  TGI: > 100 µM
DU-145 prostate
  TGI: > 100 µM
MDA-MB-435
  TGI: > 100 µM
SN12C renal
  TGI: > 100 µM
SF-295 CNS
  TGI: > 100 µM
PC-3 prostate
  TGI: > 100 µM
SF-268 CNS
  TGI: > 100 µM
HL-60(TB) leukemia
  TGI: > 100 µM
OVCAR-4 ovarian
  TGI: > 100 µM
SK-MEL-5 melanoma
  TGI: > 100 µM
MOLT-4 leukemia
  TGI: 27.9 µM

## CC(C)(C)OCC1NC(=O)[C@@H]2Cc3c([nH]c4ccccc34)C(C3CCCCC3)N2C1=O (stereo partly drawn)
MDA-N
  TGI: 37.4 µM
K-562 leukemia
  TGI: 61.6 µM
SK-OV-3 ovarian
  TGI: > 100 µM
HOP-62 NSCLC
  TGI: 39.6 µM
MCF7 breast
  TGI: > 100 µM
UACC-62 melanoma
  TGI: 31.2 µM
ACHN renal
  TGI: 68.6 µM
NCI-H226 lung
  TGI: 74.9 µM
HCT-15 colon
  TGI: 69 µM
OVCAR-3 ovarian
  TGI: 33.8 µM
COLO 205 colon
  TGI: 51.4 µM
A549 NSCLC
  TGI: > 100 µM
786-0 renal
  TGI: 50.2 µM
NCI-H522 lung
  TGI: 31.4 µM
HS 578T breast
  TGI: 51.8 µM
HCT-116 colon
  TGI: 30.5 µM
SNB-19 CNS
  TGI: > 100 µM
MDA-MB-231 breast
  TGI: 35.1 µM
A498 renal
  TGI: > 100 µM
M14 melanoma
  TGI: 42 µM
SK-MEL-2 melanoma
  TGI: 40.8 µM
KM12 colon
  TGI: 44 µM
T-47D breast
  TGI: 71.1 µM
SK-MEL-28 melanoma
  TGI: 77.6 µM
EKVX NSCLC
  TGI: 67.9 µM
IGROV1 ovarian
  TGI: 57.7 µM
CAKI-1 renal
  TGI: 53.8 µM
BT-549 breast
  TGI: 56.8 µM
UO-31 renal
  TGI: 98.8 µM
OVCAR-5 ovarian
  TGI: 50.8 µM
HOP-92 NSCLC
  TGI: 55.7 µM
TK-10 renal
  TGI: 67.6 µM
UACC-257 melanoma
  TGI: 41 µM
NCI-H23 lung
  TGI: 57.8 µM
NCI/ADR-RES ovarian
  TGI: 57.5 µM
HT29 colon
  TGI: 35.7 µM
MALME-3M melanoma
  TGI: 42.8 µM
SW-620 colon
  TGI: 85.5 µM
OVCAR-8 ovarian
  TGI: 87.3 µM
RPMI-8226 leukemia
  TGI: 49 µM
SR leukemia
  TGI: 45.4 µM
U251 CNS
  TGI: 38.5 µM
RXF 393 renal
  TGI: 38.4 µM
LOX IMVI melanoma
  TGI: 33.3 µM
DU-145 prostate
  TGI: > 100 µM
MDA-MB-435
  TGI: 35.7 µM
SN12C renal
  TGI: 43.1 µM
SF-295 CNS
  TGI: 40.8 µM
PC-3 prostate
  TGI: 46.3 µM
SF-268 CNS
  TGI: 95.6 µM
HL-60(TB) leukemia
  TGI: 52.1 µM
OVCAR-4 ovarian
  TGI: > 100 µM
SK-MEL-5 melanoma
  TGI: 29 µM
MOLT-4 leukemia
  TGI: 49.6 µM

## O=C(CCc1ccc(O)cc1)NCCc1cccc(O)c1
NCI-H460 lung
  TGI: > 50 µM
MDA-N
  TGI: > 50 µM
K-562 leukemia
  TGI: > 50 µM
SK-OV-3 ovarian
  TGI: > 50 µM
HOP-62 NSCLC
  TGI: > 50 µM
MCF7 breast
  TGI: > 50 µM
UACC-62 melanoma
  TGI: > 50 µM
ACHN renal
  TGI: > 50 µM
HCT-15 colon
  TGI: > 50 µM
OVCAR-3 ovarian
  TGI: > 50 µM
COLO 205 colon
  TGI: > 50 µM
A549 NSCLC
  TGI: > 50 µM
786-0 renal
  TGI: > 50 µM
NCI-H522 lung
  TGI: > 50 µM
HS 578T breast
  TGI: > 50 µM
HCT-116 colon
  TGI: > 50 µM
SNB-19 CNS
  TGI: > 50 µM
MDA-MB-231 breast
  TGI: > 50 µM
A498 renal
  TGI: > 50 µM
M14 melanoma
  TGI: > 50 µM
SK-MEL-2 melanoma
  TGI: > 50 µM
CCRF-CEM leukemia
  TGI: > 50 µM
KM12 colon
  TGI: > 50 µM
T-47D breast
  TGI: > 50 µM
SK-MEL-28 melanoma
  TGI: > 50 µM
EKVX NSCLC
  TGI: > 50 µM
IGROV1 ovarian
  TGI: > 50 µM
CAKI-1 renal
  TGI: > 50 µM
BT-549 breast
  TGI: > 50 µM
UO-31 renal
  TGI: > 50 µM
OVCAR-5 ovarian
  TGI: > 50 µM
HOP-92 NSCLC
  TGI: > 50 µM
TK-10 renal
  TGI: > 50 µM
SF-539 CNS
  TGI: > 50 µM
UACC-257 melanoma
  TGI: > 50 µM
NCI-H23 lung
  TGI: > 50 µM
NCI/ADR-RES ovarian
  TGI: > 50 µM
HT29 colon
  TGI: > 50 µM
MALME-3M melanoma
  TGI: > 50 µM
OVCAR-8 ovarian
  TGI: > 50 µM
SR leukemia
  TGI: > 50 µM
U251 CNS
  TGI: > 50 µM
RXF 393 renal
  TGI: > 50 µM
LOX IMVI melanoma
  TGI: > 50 µM
DU-145 prostate
  TGI: > 50 µM
MDA-MB-435
  TGI: > 50 µM
SN12C renal
  TGI: > 50 µM
SF-295 CNS
  TGI: > 50 µM
PC-3 prostate
  TGI: > 50 µM
SF-268 CNS
  TGI: > 50 µM
HL-60(TB) leukemia
  TGI: > 50 µM
OVCAR-4 ovarian
  TGI: > 50 µM
SK-MEL-5 melanoma
  TGI: > 50 µM
MOLT-4 leukemia
  TGI: > 50 µM

— PubChem BioAssay (NCI)
